In publication PMC12257544, “Fluorescent Isostere (Fluostere) of the Carboxylate: Design of hDHODH Fluorescent Inhibitors as Proof of Concept” (Journal of Medicinal Chemistry, 2025):

Legend:
[1] = Photophysical characterization (absorption, emission, QY, lifetime); format: physicochemical; settings: in ACN
Method: UV–Vis absorption spectra were recorded on a Cary60 spectrometer. Photoemission spectra, luminescence lifetimes, and quantum yields were acquired with a HORIBA Jobin Yvon IBH Fluorolog-TCSPC spectrofluorometer equipped with a Quanta-φ integrating sphere. […] Emission-decay data were collected in 2048 channels to 10000 counts in the peak channel. IRF was measures using colloidal silica suspension in H2O to scatter light. Data were analyzed with the software DAS6 (TCSPC decay-analysis software) using a nonlinear least-squares method to fit of the decay to a sum of exponentials. The value of χ^2, residuals and the autocorrelation function (Durbin-Watson parameter) were used to determine the quality of the fit. For measurements in the presence of hDHODH, 11a was incubated, at 1 μM concentration in TRIS Buffer 0.1 mM (pH 8) with 0.1% DMSO, alone or with different concentrations of recombinant protein ranging from 31.5 to 504 nM concentration. After 5 min incubation UV–Vis absorption spectra were recorded on a Cary60 spectrophotometer and photoemission spectra were acquired with a HORIBA Jobin Yvon IBH Fluorolog-TCSPC spectrofluorometer with excitation λ of 366 nm and maximum of emission at 500 nm; a.u. data were analyzed with GraphPad Prism using One Site – Specific Binding equation.

Experimental pKa = format: physicochemical

In the case of `CCOC(=O)c1c(O)nn2ccccc12` [Compound 2, Ethyl 2-hydroxypyrazolo[1,5-a]pyridine-3-carboxylate], the Lifetime [1] is reported as 7 ns, the “QY (luminescence quantum yield)” value [1] is reported as 0.42 and the Stokes shift [1] is reported as 5139 cm^–1. The λabs [1] was 313 nm, the λem [1] was 373 nm and the pKa (Experimental pKa) was 5.39.
